A word on the IC50: it is the concentration that gives 50% inhibition. High values mean weaker potency in that assay, low ones greater potency in that assay.

In test [1] the test system is SK-N-AS, SK-N-BE(2), SH-EP, WAC2, COA6, COA129 cells. The experiment in a line: CellTiter 96 proliferation, long-term cell lines and PDX cells. The format is cell-based, human. As to conditions: increasing doses, 24 h. Here is the method: (§1) CellTiter 96® Aqueous One Solution Cell Proliferation assay (Promega, Madison, WI, USA) was used to examine proliferation, and alamarBlue® assay (Thermo Fisher Scientific, Inc.) was used to evaluate viability. Cells, concentrations ranging from 5 × 10^3 to 1.5 × 10^4, depending on cell type due to wide variation in growth characteristics between established cell lines and PDX cells, were plated in 96-well plates and treated with increasing doses of 792 or 1154 for 24 h. CellTiter 96® or alamarBlue® dye (10 µL) was added for proliferation and viability assays, respectively. A microplate reader (Epoch Microplate Spectrophotometer, BioTek Instruments, Winooski, VT) measured absorbance at 490 nm for CellTiter 96® and at 570 nm for alamarBlue®, using 600 nm as a reference. […] Experiments were completed with at least three biologic replicates, and data reported as fold change ± SEM.

The next test concerns WAC2 cells. The experiment in a line: Cell cycle analysis by flow cytometry (PI), WAC2. It is filed as cell-based, human. As to conditions: WAC2, 15 μM, 24 h; for percentage of cells in the S phase: untreated 38.2 ± 1.0; for percentage of cells in G1: untreated 44.7 ± 1.6. How it is done: To evaluate cell cycle, cells (1 × 10^6) were plated and maintained in respective media with reduced FBS (4%) for cell synchronization. […] Cells were washed with phosphate-buffered saline (PBS) and fixed at 4 °C for 30 min with 100% ethanol. Following a second PBS wash, cells were stained with propidium iodide (PI, Invitrogen, Waltham, MA, USA), RNAse A (0.1 mg/mL, Qiagen, Germantown, MD, USA), and 0.1% TritonX (Active Motif, Carlsbad, CA, USA), and FACSCalibur^TM Flow Cytometer (BD Biosciences, Franklin Lakes, NJ, USA) was used for examination. FlowJo software (FlowJo, LLC, Ashland, OR, USA) was used for data analysis. Data reported as mean percentage cells in phase ± SEM.
(Flow cytometry measures light scatter and fluorescence of single cells or particles in a stream.)

A further test relates to MYCN. Kind of test: Immunoblotting of MYCN in neuroblastoma cells. The format is cell-based, human. As to conditions: 24 h. How it is done: (§2) Following treatment, cells were lysed on ice using radioimmunoprecipitation (RIPA) buffer with phosphatase inhibitors (P5726, Sigma Aldrich), protease inhibitors (P8340, Sigma Aldrich), and phenylmethanesulfonylfluoride (PMSF, P7626, Sigma Aldrich) for 60 min. Cell lysates were centrifuged at 17,000 rpm for 30 min at 4 °C. Pierce™ BCA Protein Assay (Thermo Fisher Scientific, Inc.) determined protein concentration and proteins were separated by electrophoresis on sodium dodecyl sulfate polyacrylamide (SDS-PAGE) gels. Expected size of the targeted proteins was confirmed using molecular weight markers (Precision Plus Protein Kaleidoscope, Bio-Rad, Hercules, CA, USA). […] Immunoblots were developed with Luminata Classico or Crescendo Western horseradish peroxidase substrate (EMD Millipore, Burlington, MA, USA). Either anti-vinculin or anti-β-actin (as available from manufacturer) served as an internal loading control. We performed densitometry of Western blots using ImageJ software (Ver 1.49, http://imagej.nih.gov/ij (accessed on 9 February 2022).
A general note: In western blotting, separated proteins are transferred to a membrane and probed.

For the next test, the system named is SK-N-AS flank tumors. The experiment in a line: SK-N-AS flank tumor growth in athymic nude mice. The format is in vivo, mouse. As to conditions: 50 mg/kg bid po; for Percent necrosis in SK-N-AS tumors: H&E, blinded pathologist, vehicle 8.3 ± 3.3%; for tumor volume: SK-N-AS flank tumors, after 9 days, vehicle 2104 ± 53. Here is the method:
SK-N-AS (1.8 × 10^6) or SK-N-BE(2) (1.5 × 10^6) cells in 25% Matrigel™ (BD Biosciences) were injected into the right flank of 6-week-old female athymic nude mice (Fredricks, Charles River, Wilmington, MA, USA) (n = 5 for SK-N-AS vehicle treated, n = 7 for SK-N-AS 792 or 1154 treatment and all SK-N-BE(2) experimental groups). Calipers were used to measure tumors three times per week, and volumes were calculated by the formula (width^2 × length)/2, where width was the smaller measurement. After tumors reached a volume of 100 mm^3, animals were randomized to three groups to receive 100 µL of either vehicle (N,N-dimethylacetamide (DMA, 271012, Sigma Aldrich) and Kolliphor® HS 15 (Solutol, 42996, Sigma Aldrich)), 792 (50 mg/kg in DMA and Solutol), or 1154 (50 mg/kg in DMA and Solutol) twice daily by oral gavage; dosing based on previously published in vivo cancer models. Animals were weighed weekly and were humanely euthanized in their home cages with CO2 and cervical dislocation when control tumors reached 2000 mm^3; either 9 (SK-N-AS tumors) or 19 days (SK-N-BE(2) tumors) following treatment initiation, or when IACUC parameters were met. Power analysis was completed prior to the study.

For another test, the system named is SK-N-AS cells. The experiment in a line: CellTiter 96 proliferation, SK-N-AS. It is filed as cell-based. As to conditions: Homo sapiens, 24 h. Here is the method:
as §1
Supplemental Figure S3: Novel PP2A activating compounds decrease d neuroblastoma proliferation and viability. SK-N-AS and SK-N-BE(2) cells (1.5 x 104) were plated in 96-well plates and treated with increasing doses of nine PP2A activating compounds for 24 […]
novel PP2A activators tested in (A) SK-N-AS and (B) SK-N-BE(2) cells. Similarly, PP2A […]
(D) SK-N-BE(2) cells. Data reported as mean fold change ± SEM, and experiments were repeated with at least three biologic replicates. […]

For another test, the system named is SET. Kind of test: Immunoblotting of SET in neuroblastoma cells. It is filed as cell-based, human. As to conditions: increasing concentrations, 24 h; four cell lines and two PDXs. How it is done: as §2
The mark [2] stands for this setting: SK-N-AS cells, increasing doses.
The mark [3] stands for this setting: SK-N-BE(2), SH-EP and WAC2 cells, 0, 10, 20 μM.

`O=S(=O)(NC1CCCC(N2c3ccccc3CCc3ccccc32)C1O)c1ccc(OC(F)(F)F)cc1` (stereo not shown) [DBK-1154]: in test [1], the proliferation entry is “significantly decreased proliferation”. Further, in the test on WAC2 cells, the “Mean % G1 (± SEM)” value is given as 49.6 (± 2.4) %, the “Mean % G2 (± SEM)” value was 19.0 (± 1.5) %, the “Mean % S (± SEM)” value is recorded as 28.4 (± 1.6) % and the percentage of cells in the S phase amounted to 28.4 ± 1.6%. This compound displayed a percentage of cells in G1 in the test on WAC2 cells of 49.6 ± 2.4%. For the same compound, the MYCN protein expression entry in the test with MYCN (setting [2]) was “increase in MYCN expression”. Besides, the MYCN protein expression result in the test on MYCN (setting [3]) is recorded as “decreased expression of MYCN”. For the same compound, in the test with SK-N-AS flank tumors, the “Percent necrosis in SK-N-AS tumors” value amounted to 23.3 ± 6.7% and the tumor volume is 2124 ± 275 mm^3. Moreover, the IC50 in the test with SK-N-AS cells came out at 22.4 µM. Also, the SET expression result in the test on SET was “unchanged”.
Turning to `O=S(=O)(N[C@H]1COC[C@@H](n2c3ccc(Cl)cc3c3cc(Cl)ccc32)[C@@H]1O)c1ccc(OC(F)(F)F)cc1` [ATUX-792], the proliferation result in test [1] was “significantly decreased proliferation”. For the same compound, in the test with WAC2 cells, the “Mean % G1 (± SEM)” value was 54.5 (± 2.3) %, the “Mean % G2 (± SEM)” value is reported as 14.3 (± 1.1) %, the “Mean % S (± SEM)” value was 25.4 (± 2.5) % and the percentage of cells in the S phase is 25.4 ± 2.5%. Further, the percentage of cells in G1 with WAC2 cells worked out at 54.5 ± 2.3%. Also, the MYCN protein expression entry in the test with MYCN (setting [2]) is “increase in MYCN expression”. Further, in the test on MYCN (setting [3]), the MYCN protein expression entry is “decreased expression of MYCN”. Besides, in the test with SK-N-AS flank tumors, the “Percent necrosis in SK-N-AS tumors” value came to 33.3 ± 8.8% and the tumor volume is recorded as 1309 ± 169 mm^3. Also, the “ganglion cells in tumors (tumor cell differentiation)” value in the test on SK-N-AS flank tumors (SK-N-AS tumors, H&E staining) is “ganglion cells present”. This compound also registered an IC50 in the test on SK-N-AS cells of 23.9 µM. Also, in the test on SET, the SET expression entry is on record as “unchanged”.

The record behind these values is paper PMC9026148, “Pre-Clinical Study Evaluating Novel Protein Phosphatase 2A Activators as Therapeutics for Neuroblastoma” (Cancers, 2022).
